Entries after “also recorded” stand apart in the source; their conditions may differ.
Experiments:
A549, HepG2, MCF-7 = experiment: MTT cytotoxicity assay, range over the three cancer cell lines; assay type: cell-based; details: Homo sapiens; range over A549, HepG2 and MCF-7
Procedure: (§1) The results expressed as IC50 values were summarized in Table 1, and the values were the average of at least two independent experiments.
(§2) The cancer cell lines were cultured in minimum essential medium (MEM) supplement with 10% fetal bovine serum (FBS). Approximately 4 × 10^3 cells, suspended in MEM medium, were plated onto each well of a 96-well plate and incubated in 5% CO2 at 37 °C for 24 h. The test compounds at indicated final concentrations were added to the culture medium and the cell cultures were continued for 72 h. Fresh MTT was added to each well at a terminal concentration of 5 μg/mL and incubated with cells at 37 °C for 4 h. The formazan crystals were dissolved in 100 μL DMSO each well, and the absorbency at 492 nm (for absorbance of MTT formazan) and 630 nm (for the reference wavelength) was measured with the ELISA reader. All of the compounds were tested two times in each of the cell lines. The results expressed as inhibition rates or IC50 (half-maximal inhibitory concentration) were the averages of two determinations and calculated by using the Bacus Laboratories Incorporated Slide Scanner (Bliss) software (the Bacus Laboratories Inc. Slide Scanner (BLISS) system, Lombard, IL, USA)..

HepG2 cells [1] = experiment: MTT cytotoxicity assay, HepG2; assay type: cell-based; details: Homo sapiens, 72 h
Procedure: as §1, §2

c-Met kinase [2] = target: T1, c-Met kinase (Homo sapiens, UniProt P08581); experiment: c-Met kinase inhibition assay (HTRF; mobility shift)
Procedure: All kinase assays were performed in 96-well plates in a 50 µL reaction volume. The kinase buffer contains 50 mM HEPES, pH 7.5, 10 mM MgCl2, 0.0015% Brij-35 and 2 mM DTT. The stop buffer contains 100 mM HEPES, pH 7.5, 0.015% Brij-35, 0.2% Coating Reagent 3 and 50 mM EDTA. Dilute the compounds to 500 µM by 100% DMSO, then transfer 10 µL of compound to a new 96-well plate as the intermediate plate, add 90 µL kinase buffer to each well. Transfer 5 µL of each well of the intermediate plate to 384-well plates. The following amounts of enzyme and substrate were used per well: kinase base buffer, FAM-labeled peptide, ATP and enzyme solution. Wells containing the substrate, enzyme, DMSO without compound were used as DMSO control. Wells containing just the substrate without enzyme were used as low control. Incubate at room temperature for 10 min. Add 10 µL peptide solution to each well. […] At last collect data on Caliper program and convert conversion values to inhibition values. Percent inhibition = (max − conversion)/(max − min) × 100. ‘max’ stands for DMSO control; ‘min’ stands for low control [20].

MCF-7 cells = experiment: MTT cytotoxicity assay, MCF-7; assay type: cell-based; details: Homo sapiens, MCF7, 72 h
Procedure: as §1
(§3) The cancer cell lines were cultured in minimum essential medium (MEM) supplement with 10% fetal bovine serum (FBS). […] The test compounds at indicated final concentrations were added to the culture medium and the cell cultures were continued for 72 h. […] All of the compounds were tested two times in each of the cell lines. The results expressed as inhibition rates or IC50 (half-maximal inhibitory concentration) were the averages of two determinations and calculated by using the Bacus Laboratories Incorporated Slide Scanner (Bliss) software (the Bacus Laboratories Inc. Slide Scanner (BLISS) system, Lombard, IL, USA)..

A549 cells = experiment: MTT cytotoxicity assay, A549; assay type: cell-based; details: Homo sapiens, 72 h
Procedure: as §1, §3

HepG2 cells [3] = experiment: Acridine orange (AO) single staining, nuclear morphology; assay type: cell-based, human; details: 0.01 μM, 12 h
Procedure: Potential compound 53 was selected for validation and evaluation of inhibition of cell proliferation and induction of apoptosis in HepG2 cells. […] Moreover, from the results of the inverted fluorescence microscopy, it can be observed that the cells in the control group (Figure 3a) were full and the edge was clear, which was added without nothing.
The cancer cell lines were cultured in minimum essential medium (MEM) supplement with 10% fetal bovine serum (FBS). Approximately 2 × 10^4 cells, suspended in MEM medium, were plated onto each well of a 24-well plate and incubated in 5% CO2 at 37 °C for 24 h. Then the medium was removed, and 1 mL drug-free medium and 1mL medium with the test compound 7c at indicated final concentrations were added to each well in control group and test group respectively and the cell cultures were continued for 12 h. While the medium was removed, AO-PBS buffer was added to each well at a terminal concentration of 10 µg/mL and stained in dark for 10 min. Each well was washed with PBS buffer three times and observed under a fluorescence microscope.
Figure 3 The cell morphology of HepG2 cells of the control and test groups. (a) HepG2 cells treated without any compounds; (b) HepG2 cells were treated with 0.01 µM for 12 h; Changes of nuclear morphology were determined by AO staining.

c-Met kinase [4] = target: T1, c-Met kinase; design: method as in PMID 28384549; details: previous research; cited from earlier work

T1 sequence (P08581 25-1390): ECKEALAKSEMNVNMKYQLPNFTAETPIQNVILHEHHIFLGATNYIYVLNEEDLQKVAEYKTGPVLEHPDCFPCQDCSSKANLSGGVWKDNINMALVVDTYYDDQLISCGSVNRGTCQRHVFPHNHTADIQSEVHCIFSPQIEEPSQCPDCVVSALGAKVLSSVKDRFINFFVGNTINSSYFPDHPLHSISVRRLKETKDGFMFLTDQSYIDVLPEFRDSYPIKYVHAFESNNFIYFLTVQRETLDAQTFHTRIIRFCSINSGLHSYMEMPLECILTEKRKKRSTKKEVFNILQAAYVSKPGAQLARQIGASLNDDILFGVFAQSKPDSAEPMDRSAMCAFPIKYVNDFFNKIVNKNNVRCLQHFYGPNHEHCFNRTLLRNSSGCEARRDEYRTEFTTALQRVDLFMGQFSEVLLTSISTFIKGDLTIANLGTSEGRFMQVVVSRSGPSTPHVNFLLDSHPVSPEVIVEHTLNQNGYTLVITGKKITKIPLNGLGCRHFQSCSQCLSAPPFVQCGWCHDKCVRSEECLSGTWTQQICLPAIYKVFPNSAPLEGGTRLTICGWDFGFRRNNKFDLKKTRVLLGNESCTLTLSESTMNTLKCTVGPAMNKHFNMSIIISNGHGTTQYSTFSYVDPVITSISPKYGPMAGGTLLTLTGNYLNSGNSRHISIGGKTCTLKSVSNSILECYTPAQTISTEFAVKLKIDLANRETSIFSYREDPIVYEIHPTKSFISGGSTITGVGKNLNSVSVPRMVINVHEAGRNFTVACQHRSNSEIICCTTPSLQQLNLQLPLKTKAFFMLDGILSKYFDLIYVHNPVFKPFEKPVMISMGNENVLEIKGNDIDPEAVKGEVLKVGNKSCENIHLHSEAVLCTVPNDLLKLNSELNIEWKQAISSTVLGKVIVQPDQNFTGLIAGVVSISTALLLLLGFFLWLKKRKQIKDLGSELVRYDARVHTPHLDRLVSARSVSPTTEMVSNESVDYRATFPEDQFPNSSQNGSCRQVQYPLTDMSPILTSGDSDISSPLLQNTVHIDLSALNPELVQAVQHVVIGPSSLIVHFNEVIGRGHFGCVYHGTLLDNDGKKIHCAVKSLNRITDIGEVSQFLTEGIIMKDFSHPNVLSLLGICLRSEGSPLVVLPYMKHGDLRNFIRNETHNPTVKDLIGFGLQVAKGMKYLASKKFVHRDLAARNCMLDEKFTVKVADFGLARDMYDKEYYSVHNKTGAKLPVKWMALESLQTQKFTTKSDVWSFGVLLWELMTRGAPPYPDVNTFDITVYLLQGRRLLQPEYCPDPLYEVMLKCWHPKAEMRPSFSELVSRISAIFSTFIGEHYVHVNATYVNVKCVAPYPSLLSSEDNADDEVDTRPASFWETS

Row | SMILES | IC50 (A549, HepG2, MCF-7) [nM] | IC50 (HepG2 cells [1]) [nM] | IC50 (c-Met kinase [2]) [nM] | IC50 (MCF-7 cells) [nM] | IC50 (A549 cells) [nM] | Inhibition of proliferation and induction of apoptosis (AO staining) (HepG2 cells [3]) | enzyme activity IC50 values (c-Met kinase [4])
1 | COc1cc2c(Oc3ccc(NC(=O)c4nn(-c5ccccc5)ccc4=O)cc3F)ccnc2cc1OCCCN1CCN(C)CC1 [Compound 53, N-(3-Fluoro-4-((6-methoxy-7-(3-(4-methylpiperazin-1-yl)propoxy)quinolin-4-yl)oxy)phenyl)-4-oxo-1-phenyl-1,4-dihydropyridazine-3-carboxamide] | 2 to 1030 | 490 ± 30 | 0.6 | 6 ± 1 | 3 ± 1 | significantly inhibited HepG2 cells proliferation and induced apoptosis; also recorded: could induce remarkable apoptosis of HepG2 cells | 
2 | Cc1cc(=O)n(-c2ccc(F)cc2)nc1C(=O)Nc1ccc(Oc2ccnc3[nH]ccc23)c(F)c1 [Compound 7] |  |  |  |  |  |  | in the nanomole level
